According to US7049328B2, “Use for deferiprone” (priority 2000, dated 2006):

Key:
[1] = test system: subjects with thalassemia major; assay: Retrospective study of cardiac disease (NYHA class, echocardiogram) and survival under chelation therapy; format: in vivo, human; settings: for Percentage of patients with improvement of cardiac disease diagnosed at first assessment: NYHA classification; for Percentage of patients with worsening of the cardiac disease: overall, patients with at least 2 cardiac assessments; for Newly diagnosed cardiac disease: patients cardiac disease-free at first assessment with a second cardiac assessment; for Deaths during the study period: patients treated for 4 or more years; for Normalization of the Ejection Fraction (EF) during chelation therapy: patients with abnormal EF at first assessment (2 deferiprone, 1 desferrioxamine); for Improvement of the Systolic Function (SF): patients with abnormal SF at first echocardiographic assessment; for Percentage of patients with improvement of cardiac disease diagnosed at first assessment / Worsening of the cardiac disease in patients with previously diagnosed cardiac disease: patients with cardiac disease at first assessment
Method: The study was a single centre, retrospective analysis of medical records of the occurrence of cardiac disease and of the survival of all subjects with thalassemia major treated with deferiprone or with desferrioxamine at the Centro Microcitemie of the University of Turin since Jan. 1, 1995. The medical records were evaluated of all patients ≧5 year-old at the time of the start of the review period and who had the diagnosis of thalassemia major confirmed by laboratory tests (electrophoresis and/or DNA analysis) and clinical criteria (participant's hemoglobin and transfusion dependency).
In addition to the clinical evaluation and laboratory testing, patients underwent periodic cardiac examination and assessment by a cardiologist, which in addition to the physical examination included echocardiogram and 24-hour electrocardiographic Holter monitoring if indicated. Cardiac disease was classified, according to the criteria defined by the New York Heart Association ^17, by a cardiologist experienced in heart problems in subjects with hemoglobinopathies and who was unaware of the chelation therapy of the patients. Worsening of the Systolic Function (SF) or the Ejection Fraction (EF) was defined as an abnormal result at the last assessment in patients with a normal result at the first assessment for the study. Improvement was defined as a normal result at the last assessment for patients with an abnormal result at the first assessment. The first cardiac assessment was considered as the baseline value for each patient. For patients with more than one echocardiograph assessment within a year of the study, the change was based on the mean of the results of that year.
Starting in 1995, a substantial proportion of subjects followed up at the center were treated with deferiprone, in clinical trials or for compassionate therapy. For these patients, deferiprone was given in a dose of 25 mg/kg of body weight, three times per day. The remaining patients had maintained therapy with desferrioxamine (20 to 60 mg/kg/day), given as a subcutaneous infusion for 8 to 12 hour, 4 to 7 days a week except for one patient. Although 2 patients in the desferrioxamine group had their chelation intensified with intravenous chelation during the period of this review, they were not excluded from the analysis.
The Kaplan-Meier analysis of heart disease free survival for patients who were disease-free (NYHA class not applicable=0) at the beginning of the review period was performed by using the procedure LIFETEST from SAS (SAS Institute, Cary, N.C.). The primary comparison of the two groups was based on the log rank test. […] In addition to the Kaplan-Meier analysis, the incidence of patients with a worsening of their NYHA class from the first to the last cardiac assessment was determined for, each treatment group. Chi-square test was performed to compare the incidence between the two groups.

[2] = test system: iron overload in patients with thalassemia major; assay: Iron overload assessment in the retrospective study (serum ferritin, hepatic iron by SQUID, urinary iron excretion); format: in vivo, human; settings: for Mean ± SD overall urinary iron excretion: during the study period
Method: All patients were subjected to the same transfusion regimen aimed at maintaining the pretransfusion hemoglobin levels at 9.5–10.0 g/dL and the mean hemoglobin at 12.0 g/dL. At each episode of red blood cell transfusion, each patient was interviewed and underwent clinical evaluation by a staff physician. The iron overload was determined by monthly assessment of the transfusional-iron input and by quarterly assessment of serum ferritin.
To evaluate the differences related to chelation therapy between the two groups of subjects, after the start of the study, 2 sample t-tests or Chi-square tests were performed to compare their transfusional iron input, serum ferritin, percentage of subjects with more than 50% of their serum ferritin data greater than 2500 μg/L during the study, compliance with chelation therapy, liver iron concentration and urinary iron excretion.

[3] = Serum / blood concentrations at standard doses; format: in vivo, human; settings: current / standard formulation
Method: Although a serum concentration of 100 μM for deferiprone can occur with the administration of a single 25 mg/kg dose^22, the serum concentration of desferrioxamine in patients receiving 40 mg/kg/day is usually less than 10 μM.^23. Since the desferrioxamine concentrations used in the myocyte study were more than 10fold the expected serum concentrations, the in vivo cardioprotective effect of this chelator would be expected to be less than that of deferiprone, but not four times less protective placing the patient at a 4-fold greater likelihood of developing a worsening of their cardiac status with desferrioxamine.
Another factor may be related to the different pharmacokinetic characteristics of deferiprone and desferrioxamine when these drugs are given at standard doses, as in the present study. For example, deferiprone at 25 mg/kg, produces peak concentrations of approximately 100 μM with serum concentrations declining to about 10 μM in 6 hours, and this pattern is repeated three times daily, seven days a week. On the other hand, desferrioxamine at 40 mg/kg achieves concentrations of only 5–10 μM and only for the duration of the infusion (8–12 hours/day, 5–7 days per week). The long periods of time without the presence of an iron chelator may have a profound effect on the generation of iron-induced activity within myocytes and through non-transferrin bound iron. […]

[4] = test system: subjects with thalassemia; assay: Prospective clinical study of the Assignee in 187 subjects with thalassemia, heart failure; format: in vivo, human; settings: treated for up to 5 years
Description: The Assignee completed other studies wherein the largest prospective clinical study ever conducted for an iron chelator was made. One hundred eighty-seven subjects with thalassemia were enrolled in this trial conducted by Drs. A. Cohen, R. Galanello, A. Piga, and V. De […] in 3 centres in Italy and 1 center in the USA.

[5] = test system: subjects with thalassemia major; settings: one patient participating in the study (ref. 31); cited from earlier work
[6] = test system: cardiac iron; settings: cited from earlier work; for Change in T2 relaxation time in a randomized trial: mean treatment period of 22 months
[7] = test system: iron-loaded rat neonatal myocytes; settings: cited from earlier work; for Cardio-protective effects against iron-induced damage in neonatal rat myocytes: 100 μM; for Protecting the myocytes against iron-induced damage: at the concentrations used; for Removing iron from iron-loaded rat neonatal myocytes: in vitro
[8] = test system: mouse model; settings: mouse model of Gale et al; cited from earlier work
[9] = cited from earlier work
[10] = test system: patients; settings: large safety study; cited from earlier work

SMILES	Percentage of patients with improvement of cardiac disease diagnosed at first assessment [1]	Worsening of the SF at the last assessment ([1]; number of patients)	Percentage of patients with worsening of the cardiac disease [1]	Newly diagnosed cardiac disease [1]	Deaths during the study period [1]	Normalization of the Ejection Fraction (EF) during chelation therapy [1]	Improvement of the Systolic Function (SF) [1]	Worsening of the cardiac disease in patients with previously diagnosed cardiac disease [1]	Mean ± SD hepatic iron concentration - SQUID during the last year of the review period [2]	Percentage (%) of patients with more than 50% of their serum ferritin results > 2,500 μg/L during the review period [2]	Mean ± SD overall urinary iron excretion [2]	Mean serum ferritin ± SD at year 4 of the review period [2]	Change in T2 relaxation time in a randomized trial [6]	Cardio-protective effects against iron-induced damage in neonatal rat myocytes [7]	Protecting the myocytes against iron-induced damage [7]	Removing iron from iron-loaded rat neonatal myocytes [7]	Reduction of iron concentrations from the heart [8]	other results
Cc1c(O)c(=O)ccn1C [Deferiprone, 1,2-dimethyl-3-hydroxypyrid-4one]	40 (2/5) %	2 patients	4 (2/45) %	5%	No patient	All three patients presented a normalization of the EF	2 of the 4	none of the 5	2.5 ± 1.2 mg FE/g liver wet weight	33%	18.1 ± 13.2 mg Fe/day	2402 ± 1331 µg/L	significant improvement	equal cardio-protective effects	equally effective	effective	none of the compounds studied, being desferrioxamine and deferiprone among others, reduced iron concentrations from the heart	Percentage of patients with improvement of cardiac disease diagnosed at first assessment ([1]; listed as deferiprone): 40%; Percentage of patients with worsening of the cardiac disease ([1]; listed as deferiprone): 4%; Time after which blood levels fall to very low levels [3]: about 4 hours; Occurrence of heart failure [4]: no heart failure occurred; Reversal of iron-induced congestive heart failure [5]: successful reversal; T2 relaxation time, after treatment ([6]; 23 patients treated for over one year, normal 32 msec): 30.5 ± 6.7 ms; T2 relaxation time, before ([6]; 23 patients, start value, normal 32 msec): 26.6 ± 8.4 ms; Serum concentrations declining to ([9]; 25 mg/kg, in 6 hours): about 10 μM; Peak concentrations ([9]; 25 mg/kg): approximately 100 μM; Serum concentration ([9]; single 25 mg/kg dose): 100 µM; Development of agranulocytosis [10]: about 1%
CC(=O)N(O)CCCCCNC(=O)CCC(=O)N(O)CCCCCNC(=O)CCC(=O)N(O)CCCCCN [Desferrioxamine]	27 (3/11) %	6 patients	17 (10/59) %	19%	No patient	All three patients presented a normalization of the EF	5 of the 8	one of the 11	1.8 ± 1.0 mg FE/g liver wet weight	21%	15.5 ± 12.9 mg Fe/day	2050 ± 1319 µg/L	no change	equal cardio-protective effects	equally effective	effective	none of the compounds studied, being desferrioxamine and deferiprone among others, reduced iron concentrations from the heart	Percentage of patients with improvement of cardiac disease diagnosed at first assessment ([1]; listed as desferrioxamine): 27%; Likelihood to develop a worsening of cardiac status versus deferiprone-treated patients ([1]; desferrioxamine versus deferiprone, same period): 4 fold; Worsening of the EF ([1]; number of patients): 3 patients; Percentage of patients with worsening of the cardiac disease ([1]; listed as desferrioxamine): 17%; Iron removed, comparison of the two chelators ([7]; equimolar concentrations): removed more iron than deferiprone
